Measured values as given in US20240251788A1, “HERBICIDE/SAFENER COMBINATION BASED ON SAFENERS FROM THE CLASS OF SUBSTITUTED [(1,5-DIPHENYL-1H-1,2,4-TRIAZOL-3-YL)OXY]ACETIC ACIDS AND THEIR SALTS” (Bayer Aktiengesellschaft, priority 2021, published 2024).

Tests used:
[1] = system: summer wheat crop plant (TRZAS; cv. Triso); test: Reduction in herbicide damage to summer wheat by safener, greenhouse post-emergence application, visual scoring; assay type: in vivo; details: summer wheat (TRZAS), without safener
Experimental: (§1) The seeds of the crop plants to be treated are laid out in soil in woodfiber pots (diameter ˜ 7 cm), covered with soil and grown in a greenhouse under good conditions for germination and growth. The trial plants were treated at the early leaf stage (BBCH10-BBCH12).
The herbicides used (component B) were used in the following formulations: • B2.81: WP • B2.85: WP • B2.92: WP • Cinmethylin: EC • Clomazone: WP • Ethofumesate: WP • Flufenacet: SC • Pinoxaden: WP • Saflufenacil: WP • Bicyclopyrone: WP • Picloram: WP • Metazachlor: SC • Flumioxazin: WP • Glyphosate potassium salt: SL • Topramezone: WP
(§2) The dose of the respective herbicides was chosen here such that it causes an average degree of visually apparent damage (min. 20%, max. 75%) compared to untreated crop plants at the evaluation time on a control group of crop plants without safener treatment that were included in the same trial.
(§3) In the respective herbicide/safener combinations, the safeners (component A) in the form of wettable powders (WP) were added in the dose specified; in these cases, herbicide and safener are thus applied as a mixture.
(§4) Application was effected in each case on to the above-ground parts of the plant, at a water application rate corresponding to 300 l/ha and with addition of wetting agent (Mero, 1.5 l/h a).
In the applications that contained pinoxaden, bicyclopyrone or topramezone, the herbicidal effect was enhanced by additionally adding ammonium sulfate (2 kg/ha).
(§5) After application, the plants were cultivated under good growth conditions in a greenhouse. On account of the different mechanisms of action of the herbicides used, the damaging effect of the herbicides was fully manifested at different times depending on the herbicide, and this in turn forms the basis for assessment of the safener action in the mixtures. Therefore, the damage was scored visually, depending on the herbicide/mixture, between 11 and 21 days after application.
(§6) The damage effect was assessed visually on a scale of 0-100% by comparison with untreated control plants, and averaged over 2 repeats per treatment.

[2] = system: summer barley crop plant (HORVS: cv. Quench); test: Reduction in herbicide damage to summer barley by safener, greenhouse post-emergence application, visual scoring; assay type: in vivo
Experimental: as §1
The herbicides used (component B) were used in the following formulations: • B2.81: WP • B2.85: WP • B2.92: WP • Clomazone: WP • Ethofumesate: WP • Flufenacet: SC • Fluroxypyr: EC • Saflufenacil: WP • Thiencarbazone-methyl: WP • Iodosulfuron-methyl-sodium: WP • Bifenox: WP • Glyphosate potassium salt: SL • Topramezone: WP
as §2, §3, §4
In the applications that contained pinoxaden or topramezone, the herbicidal effect was enhanced by additionally adding ammonium sulfate (2 kg/ha).
as §5, §6

Compound: Cc1cccc(C)c1N(Cn1cccn1)C(=O)CCl [Compound B2.38, metazachlor, reference compound]
- Damage to the plant by the herbicide (in %) ([1]; herbicide dose 4000 g a.i./ha): 40%

Compound: COC(=O)c1cc(Oc2ccc(Cl)cc2Cl)ccc1[N+](=O)[O-] [Compound B8.6, bifenox, reference compound]
- Damage to the plant by the herbicide (in %) ([2]; summer barley (HORVS), herbicide dose 600 g a.i./ha, without safener): 40%

Compound: Nc1c(Cl)c(Cl)nc(C(=O)O)c1Cl [Compound B6.5, picloram, reference compound]
- Damage to the plant by the herbicide (in %) ([1]; herbicide dose 400 g a.i./ha): 25%

Compound: Cc1ccccc1CO[C@@H]1C[C@@]2(C(C)C)CC[C@]1(C)O2 (racemic) [Compound B5.13, cinmethylin, reference compound]
- Damage to the plant by the herbicide (in %) ([1]; herbicide dose 500 g a.i./ha): 25%
- Damage to the plant by the herbicide (in %) ([1]; herbicide dose 1000 g a.i./ha): 25%

Compound: bicyclopyrone [Compound B1.2, reference compound]
- Damage to the plant by the herbicide (in %) ([1]; herbicide dose 400 g a.i./ha): 60%

Compound: COc1nc(C)nc(NC(=O)NS(=O)(=O)c2cc(I)ccc2C(=O)O)n1 [Compound B2.34, iodosulfuron, reference compound]
- Damage to the plant by the herbicide (in %) ([2]; in vivo): 45%

Compound: Nc1c(Cl)c(F)nc(OCC(=O)O)c1Cl [Compound B6.4, fluroxypyr, reference compound]
- Damage to the plant by the herbicide (in %) ([2]; in vivo): 20%

Compound: CCc1cc(C)cc(CC)c1-c1c(OC(=O)C(C)(C)C)n2n(c1=O)CCOCC2 [Compound B1.8, pinoxaden, reference compound]
- Damage to the plant by the herbicide (in %) ([1]; herbicide dose 200 g a.i./ha): 35%

Compound: C#CCN1C(=O)COc2cc(F)c(N3C(=O)C4=C(CCCC4)C3=O)cc21 [Compound B5.26, flumioxazin, reference compound]
- Damage to the plant by the herbicide (in %) ([1]; herbicide dose 20 g a.i./ha): 60%

Compound: COc1nn(C(=O)NS(=O)(=O)c2c(C(=O)O)csc2C)c(=O)n1C [Compound B2.68, thiencarbazone, reference compound]
- Damage to the plant by the herbicide (in %) ([2]; summer barley (HORVS), herbicide dose 30 g a.i./ha, without safener): 30%
